target: T1, F508del-CFTR (Homo sapiens, UniProt P13569, DEL508-508); assay: Iodide (125I) efflux from HeLa cells expressing F508del-CFTR; assay type: cell-based; conditions: HeLa, activators Fsk 10 μM + Gst 30 μM, relative to VX809 normalized at 100%, untreated cells 3.6%
T1 construct: expressed in transfected cells; host or cells: HeLa cells (spTCF-ΔF), selected with Zeocin
Method: Pharmacology, chemicals and reagents. The CFTR activator forskolin and potentiator genistein (Illek et al., 1995) were purchased from LC Laboratories (PKC Pharmaceuticals, Woburn, Mass.). We purchased DIDS (5-Isothiocyanato-2-[2-(4-isothiocyanato-2-sulfophenyl)ethenyl]benzene-1-sulfonic acid) and VX809 (3-(6-(1-(2,2-difluorobenzo[d][1,3]dioxol-5-yl)cyclopropanecarboxamido)-3-methylpyridin-2-yl)benzoic acid) from Selleckchem (Houston, USA). Stock solutions of F (10 mM), G (30 mM), CFTRinh-172 (10 mM), VX809 (10 mM), were prepared in DMSO. We prepared stock solution of iminosugars, miglustat and IsoLAB ([1,4-dideoxy-2-hydroxymethyl-1,4-imino-L-threitol]) dissolved in water (100 mM) before further dilution. Methods Cell culture. HeLa cells expressing wild-type CFTR (spTCF-wt) or F508del-CFTR (spTCF-ΔF) were cultured in Dulbecco's modified Eagle's medium+GlutaMAX™-I (Invitrogen) supplemented with 8% (v/v) fetal bovine serum (FBS), 1% (v/v) penicillin/streptomycin and were selected using Zeocin (50 μg/mL). Both cell lines were grown in standard culture conditions (37° C., 5% C02). Cells were plated in 35 mm plastic dishes for whole-cell patch-clamp recordings and western blot analysis and in 96-well plates for cytotoxicity assay. For all cell culture, culture media were renewed every 2 days. Western Blot analysis. Cell lysates (10 mM Tris, 1% Nonidet P-40, 0.5% sodium deoxycholate, pH 7.5) were separated 72 h after seeding for HeLa cells by 5% SDS-PAGE (50 μg of protein/well). After saturation, nitrocellulose membrane was incubated overnight at 4° C. in phosphate-buffered saline, 0.1% Tween 20 with 1 μg/ml mouse anti-CFTR monoclonal antibody (clone MAB3480; Chemicon International, Millipore Bioscience Research Reagents, Temecula, Calif.). After washing, goat peroxidase-conjugated anti-mouse IgG (1:10 000; Sigma-Aldrich) was used as secondary antibody. CFTR was visualized by chemiluminescence with ECL Western blotting detection reagent (GE Healthcare, Buckinghamshire, UK). Iodide efflux. CFTR chloride channel activity was assayed by measuring the rate of iodide (^125I) efflux from living cells. All experiments were performed with a MultiPROBE® IIex robotic liquid handling system (Perkin Elmer Life Sciences, Courtaboeuf, France). At the beginning of each experiment, cells were washed twice with efflux buffer containing (in mM) 136.9 NaCl, 5.4 KCl, 0.3 KH2PO4, 0.3 NaH2PO4, 1.3 CaCl2, 0.5 MgCl2, 0.4 MgSO4, 5.6 glucose and 10 HEPES, pH 7.4. Cells were incubated in efflux buffer containing Na^125I (1 μCi Na^125I/ml, NEN, Boston, Mass.) during 1 h at 37° C., then washed with efflux medium to remove extracellular ^125I. The loss of intracellular ^125I was determined by removing the medium with efflux buffer every 1 min for up to 10 min. The first three aliquots were used to establish a stable baseline in efflux buffer alone. A medium containing the activators of CFTR (Fsk 10 μM+Gst 30 μM) and the appropriate drug was used for the remaining aliquots. Residual radioactivity was extracted with 0.1 N NaOH/0.1% SDS, and determined using a Packard Cobra™ II gamma counter (Perkin Elmer life Sciences, Courtaboeuf, France). The fraction of initial intracellular ^125I lost during each time point was collected and time-dependent rates of ^125I efflux calculated from: ln (^125It1/^125It2)/(t1−t2) where ^125It is the intracellular ^125I at time t, and t1 and t2 successive time points. Curves were constructed by plotting rate of 125I versus time. All comparisons were based on maximal values for the time-dependent rates (k=peak rates, min−1) excluding the points used to establish the baseline (kpeak−kbasal, min^−1), and histograms were presented as percentage of activation. Time dependence. Time dependence of the compounds was assayed by measuring the time necessary for an optimal correction of the protein F508del-CFTR. […]

T1 sequence (P13569 with tags, fused parts or gaps DEL508-508): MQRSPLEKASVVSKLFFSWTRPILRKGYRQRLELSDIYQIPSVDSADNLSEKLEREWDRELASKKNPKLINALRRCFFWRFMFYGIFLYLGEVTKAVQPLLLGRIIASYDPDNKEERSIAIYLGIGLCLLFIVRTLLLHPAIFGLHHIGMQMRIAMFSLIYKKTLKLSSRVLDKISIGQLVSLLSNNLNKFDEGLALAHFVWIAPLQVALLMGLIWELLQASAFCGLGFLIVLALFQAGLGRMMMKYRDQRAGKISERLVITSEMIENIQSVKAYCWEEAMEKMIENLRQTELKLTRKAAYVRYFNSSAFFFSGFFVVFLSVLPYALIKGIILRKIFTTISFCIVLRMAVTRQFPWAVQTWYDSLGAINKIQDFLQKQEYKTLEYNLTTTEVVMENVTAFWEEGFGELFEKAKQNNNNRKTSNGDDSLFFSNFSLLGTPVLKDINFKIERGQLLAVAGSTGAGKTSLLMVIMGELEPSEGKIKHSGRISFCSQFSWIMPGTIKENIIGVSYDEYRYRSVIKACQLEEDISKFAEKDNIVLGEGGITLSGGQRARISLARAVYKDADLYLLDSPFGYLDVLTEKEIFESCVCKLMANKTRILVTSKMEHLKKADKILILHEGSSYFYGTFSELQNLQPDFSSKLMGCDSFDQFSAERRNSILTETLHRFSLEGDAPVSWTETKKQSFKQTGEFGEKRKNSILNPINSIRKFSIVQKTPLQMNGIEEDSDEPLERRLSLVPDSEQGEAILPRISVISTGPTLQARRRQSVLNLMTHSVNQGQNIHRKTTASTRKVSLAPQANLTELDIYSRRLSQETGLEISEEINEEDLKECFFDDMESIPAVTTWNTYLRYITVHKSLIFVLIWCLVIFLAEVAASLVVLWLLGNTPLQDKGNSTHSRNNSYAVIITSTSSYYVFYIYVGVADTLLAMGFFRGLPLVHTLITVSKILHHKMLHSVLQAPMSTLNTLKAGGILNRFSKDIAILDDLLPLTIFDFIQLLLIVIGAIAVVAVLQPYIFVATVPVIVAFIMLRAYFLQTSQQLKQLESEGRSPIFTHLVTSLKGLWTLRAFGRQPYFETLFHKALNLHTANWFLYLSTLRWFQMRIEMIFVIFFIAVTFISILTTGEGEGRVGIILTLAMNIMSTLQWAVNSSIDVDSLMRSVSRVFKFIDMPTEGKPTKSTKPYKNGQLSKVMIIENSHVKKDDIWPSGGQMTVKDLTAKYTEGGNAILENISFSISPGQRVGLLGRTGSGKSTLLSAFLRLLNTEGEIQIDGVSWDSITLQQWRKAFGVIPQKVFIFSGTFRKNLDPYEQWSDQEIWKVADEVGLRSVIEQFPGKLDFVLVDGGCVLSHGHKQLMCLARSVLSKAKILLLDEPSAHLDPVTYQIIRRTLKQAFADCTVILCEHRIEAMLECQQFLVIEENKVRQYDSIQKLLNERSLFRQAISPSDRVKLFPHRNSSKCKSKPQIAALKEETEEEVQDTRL

Emax [%]	Compound
35 to 60	NC(=O)c1ccc(Nc2ncnc(N)c2N)cc1 [Compound 59, 4-((5,6-diaminopyrimidin-4-yl)amino)benzamide]
10 to 35	C[C@H](Nc1nc(NCCCc2ccccc2)nc2c1ncn2-c1ccccc1)C(=O)OC(C)(C)C [Compound 82, (S)-tert-butyl 2-((9-phenyl-2-((3-phenylpropyl)amino)-9H-purin-6-yl)amino)propanoate]
10 to 35	CN(c1ccc(C(=O)O)cc1)c1ncnc(Cl)c1[N+](=O)[O-] [Compound 123, 4-((6-chloro-5-nitropyrimidin-4-yl)(methyl)amino)benzoic acid]
35 to 60	NC(=O)c1ccc(Nc2nc(N)nc3c2ncn3-c2ccc(C(N)=O)cc2)cc1 [Compound 28, 4-(2-amino-6-((4-carbamoylphenyl)amino)-9H-purin-9-yl)benzamide]
≥ 60	NC(=O)c1ccc(Nc2c[n+]([O-])ccc2[N+](=O)[O-])cc1 [Compound 114, 3-((4-carbamoylphenyl)amino)-4-nitropyridine 1-oxide]
10 to 35	COc1ccc(CNc2nc(Cl)nc3c2ncn3-c2ccc(C(N)=O)cc2)cc1 [Compound 25, 4-(2-chloro-6-((4-methoxybenzyl)amino)-9H-purin-9-yl)benzamide]
≥ 60	NC(=O)c1ccc(-n2cnc3c(NC(CO)CO)nc(Cl)nc32)cc1 [Compound 21, 4-(2-chloro-6-((1,3-dihydroxypropan-2-yl)amino)-9H-purin-9-yl)benzamide]
35 to 60	Nc1nc(N)c2ncn(-c3ccc(CO)cc3)c2n1 [Compound 61, (4-(2,6-diamino-9H-purin-9-yl)phenyl)methanol]
35 to 60	COc1ccc(CNc2nc(NCCCc3cccc(F)c3)nc3[nH]cnc23)cc1 [Compound 127, N2-(3-(3-fluorophenyl)propyl)-N6-(4-methoxybenzyl)-9H-purine-2,6-diamine]
10 to 35	COc1ccc(-n2cnc3c(O)nc(N)nc32)cc1OC [Compound 91, 2-amino-9-(3,4-dimethoxyphenyl)-9H-purin-6-ol]
10 to 35	NC(=O)c1ccc(-n2cnc3c(Cl)nc(Cl)nc32)cc1 [Compound 79, 4-(2,6-dichloro-9H-purin-9-yl)benzamide]
≥ 60	Nc1nc(Cl)nc2c1ncn2-c1ccc(CO)cc1 [Compound 54, (4-(6-amino-2-chloro-9H-purin-9-yl)phenyl)methanol]
10 to 35	C[C@H](Nc1nc(Cl)nc2c1ncn2-c1ccc(CO)cc1)C(=O)OC(C)(C)C [Compound 15, (S)-tert-butyl 2-((2-chloro-9-(4-(hydroxymethyl)phenyl)-9H-purin-6-yl)amino)propanoate]
10 to 35	NC(=O)c1ccc(Nc2cc(O)nc(O)n2)cc1 [Compound 96, 4-((2,6-dihydroxypyrimidin-4-yl)amino)benzamide]
35 to 60	Cc1nc(Cl)c(N)c(Nc2ccc(C(N)=O)cc2)n1 [Compound 65, 4-((5-amino-6-chloro-2-methylpyrimidin-4-yl)amino)benzamide]
≥ 60	C[C@H](Nc1nc(Cl)nc2c1ncn2-c1ccccc1)C(=O)O [Compound 118, (S)-2-((2-chloro-9-phenyl-9H-purin-6-yl)amino)propanoic acid]
≥ 60	COc1ccc(CNc2nc(Cl)nc3c2ncn3Cc2ccccc2)cc1 [Compound 4, 9-benzyl-2-chloro-N-(4-methoxybenzyl)-9H-purin-6-amine]
35 to 60	Nc1nc(NCCCc2cccc(F)c2)nc2[nH]cnc12 [Compound 128, N2-(3-(3-fluorophenyl)propyl)-9H-purine-2,6-diamine]

Emax [%]	Compound
10 to 35	Clc1nc(Cl)c2ncn(-c3cccnc3)c2n1 [Compound 94, 2,6-dichloro-9-(pyridin-3-yl)-9H-purine]
≥ 60	NC(=O)c1ccc(-n2cnc3c(NCC(=O)O)nc(Cl)nc32)cc1 [Compound 23, 2-((9-(4-carbamoylphenyl)-2-chloro-9H-purin-6-yl)amino)acetic acid]
35 to 60	COc1ccc(CNc2nc(NCCCCc3ccccc3)nc3[nH]cnc23)cc1 [Compound 58, N6-(4-methoxybenzyl)-N2-(4-phenylbutyl)-9H-purine-2,6-diamine]
≥ 60	Nc1c(Cl)ncnc1Cl [Compound 47, 4,6-dichloropyrimidin-5-amine]
≥ 60	C[C@H](Nc1nc(Cl)nc2c1ncn2-c1ccc(C(N)=O)cc1)C(=O)OC(C)(C)C [Compound 27, (S)-tert-butyl 2-((9-(4-carbamoylphenyl)-2-chloro-9H-purin-6-yl)amino)propanoate]
10 to 35	C[C@H](Nc1nc(Cl)nc2c1ncn2-c1ccccc1)C(=O)OC(C)(C)C [Compound 81, (S)-tert-butyl 2-((2-chloro-9-phenyl-9H-purin-6-yl)amino)propanoate]
≥ 60	CN(c1ccc(C(N)=O)cc1)c1ncnc(Cl)c1[N+](=O)[O-] [Compound 125, 4-((6-chloro-5-nitropyrimidin-4-yl)(methyl)amino)benzamide]
≥ 60	NC(=O)c1ccc(-c2nc(N)nc3[nH]cnc23)cc1 [Compound 113, 4-(2-amino-9H-purin-6-yl)benzamide]
≥ 60	NC(=O)c1ccc(Nc2ncccc2N)cc1 [Compound 115, 2-((4-carbamoylphenyl)amino)-pyridin-3-aminium chloride]
35 to 60	Nc1nc(Cl)c(NC=O)c(Cl)n1 [Compound 101, N-(2-amino-4,6-dichloropyrimidin-5-yl)formamide]
10 to 35	NC(=O)c1cccc(-n2cnc3c(Cl)nc(Cl)nc32)c1 [Compound 95, 3-(2,6-dichloro-9H-purin-9-yl)benzamide]
10 to 35	COc1ccc(CCNc2nc(NCc3ccc(OC)cc3)c3ncn(-c4ccccc4)c3n2)cc1 [Compound 85, N6-(4-methoxybenzyl)-N2-(4-methoxyphenethyl)-9-phenyl-9H-purine-2,6-diamine]
10 to 35	C[C@H](Nc1nc(Cl)nc2c1ncn2Cc1ccc(C(N)=O)cc1)C(=O)OC(C)(C)C [Compound 121, (S)-tert-butyl 2-((9-(4-carbamoylbenzyl)-2-chloro-9H-purin-6-yl)amino)propanoate]
≥ 60	NC(=O)c1ccc(-n2nnc3c(Cl)ncnc32)cc1 [Compound 33, 4-(7-chloro-3H-[1,2,3]triazolo[4,5-d]pyrimidin-3-yl)benzamide]
35 to 60	Cc1ccc(Nc2ncnc(Cl)c2N)cc1 [Compound 109, 6-chloro-N4-(p-tolyl)pyrimidine-4,5-diamine]
10 to 35	O=[N+]([O-])c1c(O)nc(O)nc1Cl [Compound 103, 6-chloro-5-nitropyrimidine-2,4-diol]
10 to 35	COc1ccc(CNc2nc(Cl)nc3c2ncn3Cc2ccc(C(N)=O)cc2)cc1 [Compound 89, 4-((2-chloro-6-((4-methoxybenzyl)amino)-9H-purin-9-yl)methyl)benzamide]

same assay, conditions: activators Fsk 10 μM + Gst 30 μM, relative to VX809 normalized at 100%, untreated cells 3.6%

Iodide efflux	Compound	Emax [%]
+ (10%≤+<35%)	CSc1ncnc(Nc2ccc(C(N)=O)cc2)c1N [Compound 124, 4-((5-amino-6-(methylthio)pyrimidin-4-yl)amino)benzamide]	–
–	COC(=O)c1ccc(-n2cnc3c(OC(=O)NC(c4ccccc4)c4ccccc4)nc(NC(C)=O)nc32)cc1 [Compound 30, methyl 4-(2-acetamido-6-((benzhydrylcarbamoyl)oxy)-9H-purin-9-yl)benzoate]	35 to 60

— patent publication US10414768B2, “Compounds for treating cystic fibrosis” (CENTRE NATIONAL DE LA RECHERCHE SCIENTIFIQUE (CNRS), priority 2014, dated 2019)
